The structures appear in SMILES notation.

Drawing on ChEMBL document CHEMBL3507680, “University of Dundee, Gates Library screen for HepG2 cell viability”, this text covers cytotoxicity for 96 molecules.

A short description of this data set: Human HepG2 cell viability assay in 384 well format. Also noted: dose 125 nL, time 70.5 hour; concentration not given beside the values. The following applies: HepG2 cells, read-out: Inhibition. The data set is classed as toxicity, cell-based.
With `Cc1cccc(S(=O)(=O)N2CCC3(CC2)CC(N(C)C)CO3)c1` (stereo unspecified), the cytotoxicity at 70.5 h is -10.7%.

Take `CCc1cnc(N2CC3(CCN(S(=O)(=O)C4CC4)C3)C2)nc1`: the cytotoxicity at 70.5 h was -8.49%.

As for `O=C(NCC1CC1)[C@@H]1CC[C@@H]2[C@@H](CCN2CCOCc2ccccc2)O1`, the cytotoxicity at 70.5 h is -9.94%.

Take `c1csc(CNCC2COCc3c(-c4ccsc4)nnn3C2)n1` (stereo unspecified): the cytotoxicity at 70.5 h is -7.15%.

Regarding `CC(=O)N1CCC(c2nnc3ccc(C(=O)NCCN(C)C)cn23)C1` (stereo unspecified), the cytotoxicity at 70.5 h was -10.5%.

`CNC(=O)CN1CCOCC2(C1)CN(Cc1csnn1)CCO2` (stereo unspecified): the cytotoxicity at 70.5 h stood at 12.8%.

For the molecule `Cc1cc(C(=O)N2CCc3ncc(CN4CCCCC4)n3CC2)no1`, the cytotoxicity at 70.5 h was determined as 21.9%.

For the molecule `CNC(=O)[C@H]1C[C@@H]2CN(C(=O)NC(C)C)C[C@H]1O2`, the cytotoxicity at 70.5 h turned out to be 23%.

With `CC(C)CN1C[C@@H]2CN(c3cnccn3)C[C@@H]2C1=O`, the cytotoxicity at 70.5 h turned out to be 29.2%.

As to `Cc1cnc(N2CCOC3(COCCN(c4nccs4)C3)C2)nc1` (stereo unspecified), the cytotoxicity at 70.5 h was -4.6%.

For the molecule `O=C1[C@H]2CN(c3cnccn3)C[C@H]2CN1CC1CC1`, the cytotoxicity at 70.5 h is -12.5%.

As for `Cn1cnc(-c2nc(C(=O)NC3CC3)c3ccccn23)c1`, the cytotoxicity at 70.5 h is -1.89%.

In the case of `Cc1cnc(N2CCCC3(COCCN(c4nccs4)C3)C2)nc1` (stereo unspecified), the cytotoxicity at 70.5 h was -8.41%.

Take `CN(C)C(=O)CO[C@H]1CO[C@@]2(CCN(S(C)(=O)=O)C2)C1`: the cytotoxicity at 70.5 h is -6.98%.

For the molecule `CN(C)C(=O)CO[C@H]1CO[C@@]2(CCN(Cc3ccoc3)C2)C1`, the cytotoxicity at 70.5 h was -5.9%.

For `Cn1cnc(-c2nc(C(=O)NCC3CCCO3)c3ccccn23)c1` (stereo unspecified), the cytotoxicity at 70.5 h was -0.333%.

For the molecule `CNC(=O)[C@@H]1C[C@H]2CN(Cc3ccc(C)o3)C[C@H]2N1C(C)=O`, the cytotoxicity at 70.5 h is -0.0424%.

`COc1cc(N2CCC3(CC2)C(c2ccncc2)CC(=O)N3C)ncn1` (stereo unspecified): the cytotoxicity at 70.5 h is -9.06%.

Consider `Cn1cc(N2C(=O)C[C@@H]3[C@@H]2CCN3C(=O)c2ccco2)cn1`, for which the cytotoxicity at 70.5 h is -6.04%.

On to `CCC(O)CNc1ccc(-c2nc(CC(C)C)no2)cn1` (stereo unspecified), for which the cytotoxicity at 70.5 h is -14.3%.

`CCC(CO)N(Cc1ccc(C(=O)O)cc1)Cc1ccsc1` (stereo unspecified): the cytotoxicity at 70.5 h was -5.5%.

Take `CC(=O)N1CC[C@]2(O)CCN(Cc3nc(C)c[nH]3)C[C@@H]2C1`: the cytotoxicity at 70.5 h is 9.69%.

`COc1ccc(Cn2c(CCc3c(C)n[nH]c3C)n[nH]c2=O)cc1`: the cytotoxicity at 70.5 h was -3.26%.

For `Cc1nc(-c2ccncc2)ncc1C(C)NC(=O)CN1CCOC1=O` (stereo unspecified), the cytotoxicity at 70.5 h was -5.31%.

Take `Cc1nn(C)c2nc(N3CCNC(=O)C3Cc3ccccc3)sc12` (stereo unspecified): the cytotoxicity at 70.5 h is -2.78%.

With `Cn1cccc1-c1cc(C(=O)N2CCCC2c2nccs2)[nH]n1` (stereo unspecified), the cytotoxicity at 70.5 h was -0.138%.

`CC(C)N1CCCC2(CCN(C(=O)COCC(F)(F)C(F)F)C2)C1=O` (stereo unspecified): the cytotoxicity at 70.5 h was -3.34%.

Turning to `c1cc(CN(CCCn2ccnc2)Cc2ccoc2)ccn1`, the cytotoxicity at 70.5 h is -4.93%.

As for `Cc1cc(CN2CCC(C3CCN(Cc4cccnc4)CC3)C2)[nH]n1` (stereo unspecified), the cytotoxicity at 70.5 h was -6.23%.

Take `CSCC[C@@H](CO)Nc1ccc(-c2nc(-c3ccccc3F)no2)cn1`: the cytotoxicity at 70.5 h was -6.28%.

Regarding `Cc1cccnc1CCNC(=O)CC1C(=O)NCCN1CCC(C)C` (stereo unspecified), the cytotoxicity at 70.5 h was 19.9%.

Consider `O=C1C[C@H]2CC[C@@H](CN1)N2C1CSCCSC1`, for which the cytotoxicity at 70.5 h was determined as 17.4%.

On to `COc1ccccc1OC1CN(Cc2ccc(C(=O)O)cc2)C1`, for which the cytotoxicity at 70.5 h was -8.2%.

Take `Cc1ncc(CC(=O)N2CCC3(CCC(=O)N(CCO)C3)CC2)c(=O)[nH]1`: the cytotoxicity at 70.5 h is -13.5%.

On to `CCCn1ncc(-c2ccnc(NC3CCSC3)n2)c1C` (stereo unspecified), for which the cytotoxicity at 70.5 h was -12.7%.

Regarding `COCCN(CCOC)C(=O)c1c[nH]nc1-c1cccc(F)c1`, the cytotoxicity at 70.5 h is 0.751%.

Take `Cc1nccc(NCc2cc3n(n2)CCCN(C(=O)C2CCC2)C3)n1`: the cytotoxicity at 70.5 h worked out at 13.7%.

Regarding `CCCOc1cccc(-c2nc3c([nH]2)CCNC3)c1`, the cytotoxicity at 70.5 h amounted to 5.31%.

On to `CSc1nnc(CC2CCN(C(=O)CCc3cccnc3)CC2)n1C`, for which the cytotoxicity at 70.5 h is -8.7%.

Turning to `CNC(=O)c1cc2c(s1)CCN(C(=O)CCC1CCCN(C)C1)C2` (stereo unspecified), the cytotoxicity at 70.5 h is -7.22%.

For the molecule `O=C(CN1CCOCC1)N1CCC(c2cc(N3CCCC3)ncn2)CC1`, the cytotoxicity at 70.5 h was -3.77%.

For `COc1ccc(-n2cc(CCO)cn2)cc1C`, the cytotoxicity at 70.5 h is -9.33%.

Consider `Cc1nc(C(C)C)sc1C(=O)N(C)Cc1nc(-c2ccccn2)no1`, for which the cytotoxicity at 70.5 h is -9.57%.

In the case of `CCc1nc(N2CCC3(CC2)OCCCC3O)ncc1C` (stereo unspecified), the cytotoxicity at 70.5 h is -2.39%.

Turning to `COc1cc2c(cc1-c1nc3c(cnn3C(C)C3CC3)[nH]1)OCO2` (stereo unspecified), the cytotoxicity at 70.5 h was -2.31%.

For `O=S(=O)(NCc1cc2n(n1)CCNC2)c1ccc(OC(F)(F)F)cc1`, the cytotoxicity at 70.5 h was -16.5%.

`CCn1nc(CC(C)C)cc1C(=O)N1CC(c2ccncc2)C1`: the cytotoxicity at 70.5 h is -4.86%.

For the molecule `Cc1ccccc1OCC1CCCN(C(=O)Cc2c[nH]c(=O)[nH]c2=O)C1` (stereo unspecified), the cytotoxicity at 70.5 h was -0.878%.

For the molecule `O=C(NCCOCCO)c1cnc(-c2ccccc2)nc1O`, the cytotoxicity at 70.5 h was -7.84%.

For `Cc1c(CN2CCCC(C(=O)CCc3ccccc3)C2)cc(C#N)n1C` (stereo unspecified), the cytotoxicity at 70.5 h amounted to 12%.

Take `CCCc1nccn1-c1cccc(CN2CCCC2)c1`: the cytotoxicity at 70.5 h was -2.36%.

As for `COCc1nnc(C(=O)N(C)Cc2cnc3ccccn23)o1`, the cytotoxicity at 70.5 h is -3.55%.

On to `Cc1cc(NC(C)c2nnn[nH]2)n2nc(C)c(C)c2n1` (stereo unspecified), for which the cytotoxicity at 70.5 h was determined as 5.16%.

Consider `C=Cc1ccc(C(=O)N2CCCC(Nc3ccccc3)C2)cc1` (stereo unspecified), for which the cytotoxicity at 70.5 h worked out at 26.6%.

`Cc1[nH]c(-c2ccccc2)nc1C(=O)N1CC[C@H](CO)[C@@H](O)C1`: the cytotoxicity at 70.5 h was 23.4%.

As to `Cc1ccccc1CC1(CO)CCCN(c2ncncc2C(C)C)C1` (stereo unspecified), the cytotoxicity at 70.5 h is 5.34%.

On to `Cc1cc(C2CCCCN2C(=O)CN2C(=O)OC(C)(C)C2=O)no1` (stereo unspecified), for which the cytotoxicity at 70.5 h is -7.73%.

As for `FC(F)(F)c1ccc(-c2cc(NC3CCNCC3)nc3[nH]ccc23)nc1`, the cytotoxicity at 70.5 h is -7.67%.

As to `CCn1ccnc1C1CCN(C(=O)C(O)c2ccc(Cl)cc2)CC1` (stereo unspecified), the cytotoxicity at 70.5 h was -2.92%.

`CCCC(=O)Nc1ccc(CC(=O)N(C)CCc2cn[nH]c2)cc1`: the cytotoxicity at 70.5 h is -7.4%.

As for `CN1CCN(CCn2cnc3c(F)cccc3c2=O)CC1`, the cytotoxicity at 70.5 h is -1.43%.

On to `FC(F)(F)c1cccc(OC2CCN(Cc3c[nH]cn3)CC2)c1`, for which the cytotoxicity at 70.5 h was 45.6%.

With `CCCC1C=CCN1C(=O)c1cc(COc2ccccc2)[nH]n1` (stereo unspecified), the cytotoxicity at 70.5 h was -6.23%.

As to `O=C(Cc1ccccn1)N1CCCC(c2nccn2CC2CCC2)C1` (stereo unspecified), the cytotoxicity at 70.5 h is -24.3%.

As to `Cc1nc2c(c(=O)[nH]1)CCN(C(=O)c1[nH]nc3c1CC(C)CC3)C2` (stereo unspecified), the cytotoxicity at 70.5 h was 2.4%.

Regarding `CCN(Cc1nccn1C)C(=O)c1ccc(NCc2ccc(C)o2)nc1`, the cytotoxicity at 70.5 h stood at 27.2%.

In the case of `CCN(Cc1cn(CC2CCNCC2)nn1)CC1CCCO1` (stereo unspecified), the cytotoxicity at 70.5 h is -6.79%.

With `CCc1cc(N(C)Cc2ccncn2)n2nccc2n1`, the cytotoxicity at 70.5 h stood at 13.1%.

With `CC(NC(=O)c1cc2n(n1)CCCN(C)C2)c1cn2ccsc2n1` (stereo unspecified), the cytotoxicity at 70.5 h came out at 24.9%.

Consider `COC[C@@]12CC[C@@H](N3CCOCC3)C[C@H]1CCN(c1ccc(Cl)cn1)C2`, for which the cytotoxicity at 70.5 h is -6.42%.

For the molecule `O=C(c1cnccn1)N1CCCC(Cn2cc(C3CC3)nn2)C1` (stereo unspecified), the cytotoxicity at 70.5 h turned out to be 15.7%.

On to `O=C(Cc1cn2ccsc2n1)N1CCOCC(O)(CN2CCCC2)C1` (stereo unspecified), for which the cytotoxicity at 70.5 h was -4.72%.

Turning to `CC(C)c1nccn1CC(=O)Nc1ccnn1C(C)C(C)C` (stereo unspecified), the cytotoxicity at 70.5 h is -16%.

With `Cc1nc(C)c(CCN2CCC(Oc3ccccc3F)CC2)s1`, the cytotoxicity at 70.5 h amounted to 8.23%.

With `CCNc1ccnc(N2Cc3cnc(CC(C)C)nc3C2)n1`, the cytotoxicity at 70.5 h was 18.4%.

Turning to `COCCc1noc(-c2ccc(-c3cc[nH]n3)nc2)n1`, the cytotoxicity at 70.5 h was -1.45%.

As to `Cc1csc2c(=O)n(CCN3CCNCC3)cnc12`, the cytotoxicity at 70.5 h turned out to be 11.9%.

Consider `CCc1cnc(C)nc1NC1CC(=O)N(CC)C1` (stereo unspecified), for which the cytotoxicity at 70.5 h is -7.16%.

For the molecule `O=C(NCC1CCCN(Cc2cccc3nonc23)C1)c1ccc[nH]1` (stereo unspecified), the cytotoxicity at 70.5 h amounted to 3.08%.

Consider `CCC1CN(C(=O)c2ccc(O)cn2)CCC(=O)N1Cc1ccccc1` (stereo unspecified), for which the cytotoxicity at 70.5 h is -3.56%.

Take `CN(Cc1ccc(CCC(C)(C)O)cc1)CC1(CO)CC1`: the cytotoxicity at 70.5 h is -10.9%.

For the molecule `Cc1cccc(CNC2CC(=O)N(Cc3cccc(F)c3)C2)c1` (stereo unspecified), the cytotoxicity at 70.5 h is -4.77%.

Turning to `c1ccc(-c2cc(NCCCC3CCOC3)n3nccc3n2)cc1` (stereo unspecified), the cytotoxicity at 70.5 h was -0.688%.

Regarding `Cn1c(C(N)=O)cc2c1CN(C(=O)C1CC(=O)N(C(C)(C)C)C1)CC2` (stereo unspecified), the cytotoxicity at 70.5 h is -2.03%.

With `CNc1nc(C)c(-c2nc(-c3c(C)ncc4c3CCNC4)no2)s1`, the cytotoxicity at 70.5 h was -16.8%.

In the case of `CCOc1cccc(C2CC(=O)NCc3nc(N)sc32)c1` (stereo unspecified), the cytotoxicity at 70.5 h is -11.2%.

`CN1C(=O)C2(CCNCC2)c2cc(F)ccc21`: the cytotoxicity at 70.5 h is -4.69%.

Regarding `CN1C(=O)C2(CCN(S(C)(=O)=O)CC2)c2cc(F)ccc21`, the cytotoxicity at 70.5 h is -3.04%.

As for `O=C(NC1CCC1)[C@@H]1CC[C@@H]2[C@@H](CCN2CCc2ccccc2)O1`, the cytotoxicity at 70.5 h was -13.9%.

`Cc1nc(CO[C@H]2CN(C(=O)c3ccc[nH]3)[C@@H]3COC[C@H]23)cs1`: the cytotoxicity at 70.5 h was -13%.

Turning to `CCN(C(=O)c1ccc2nnc(C3CCN(C)C3)n2c1)C(C)C` (stereo unspecified), the cytotoxicity at 70.5 h was -11.3%.

For `O=C(c1ccco1)N1CC[C@H]2[C@H]1CC(=O)N2c1cccnc1`, the cytotoxicity at 70.5 h came out at 21.7%.

As to `CN(C)C(=O)CO[C@H]1CO[C@@]2(CCN(Cc3ccsc3)C2)C1`, the cytotoxicity at 70.5 h was -6.3%.

For the molecule `CN(Cc1cccnc1)C[C@H]1OC[C@@H]2CCN(C(=O)C3CC3)C[C@@H]21`, the cytotoxicity at 70.5 h is -9.16%.

On to `Cc1ccc(CN2CC[C@H]3[C@H](CO[C@H]3CN(C)C)C2)o1`, for which the cytotoxicity at 70.5 h is -11.7%.

Take `Cn1cc(N2CC[C@@H]3CN(Cc4ccncc4)C[C@H]3C2=O)cn1`: the cytotoxicity at 70.5 h is 2.33%.
